One test deals with pERK in H727 cells. Briefly: Inhibition of KRas phosphorylation of ERK (Cisbio HTRF pERK assay). The conditions noted are these: Homo sapiens, NCI-H727, read-out: Inhibition (HTRF IC50) of KRas-mediated Phosphorylation of ERK, H727. Background: TR-FRET usually uses a lanthanide donor and a delayed reading to cut background.
The test system of the next test is pERK in ASPC1 cells. Described as above. The conditions noted are these: Homo sapiens, ASPC1, read-out: Inhibition (HTRF IC50) of KRas-mediated Phosphorylation of ERK, AsPC-1.
The target of a further test is KRas G12V (Homo sapiens, UniProt P01116, G12V). In words: biochemical.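 Further: KRas binding measured by TR-FRET displacement at room temperature, IC50 fitted from percent of control values.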
Sequence of KRas G12V (P01116 1-169 isoform P01116-2 G12V): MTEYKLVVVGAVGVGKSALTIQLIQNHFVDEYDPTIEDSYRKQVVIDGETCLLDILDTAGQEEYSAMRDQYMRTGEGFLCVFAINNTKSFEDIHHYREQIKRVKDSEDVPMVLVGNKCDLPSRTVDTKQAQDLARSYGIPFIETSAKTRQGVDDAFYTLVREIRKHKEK
The next test deals with KRas G12R (Homo sapiens, UniProt P01116, G12R). In words: biochemical.
Sequence of KRas G12R (P01116 1-169 isoform P01116-2 G12R): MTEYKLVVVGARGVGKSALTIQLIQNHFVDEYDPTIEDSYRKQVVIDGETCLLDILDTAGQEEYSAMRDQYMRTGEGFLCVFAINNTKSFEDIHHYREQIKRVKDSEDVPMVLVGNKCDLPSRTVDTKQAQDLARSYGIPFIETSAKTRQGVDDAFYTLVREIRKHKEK
In the next test the target is KRas G12D (Homo sapiens, UniProt P01116, G12D). Briefly: biochemical.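 Further: TR-FRET displacement binding assay on KRas, read after a one-hour incubation at room temperature, IC50 fitted from percent-of-control values.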
Sequence of KRas G12D (P01116 1-169 isoform P01116-2 G12D): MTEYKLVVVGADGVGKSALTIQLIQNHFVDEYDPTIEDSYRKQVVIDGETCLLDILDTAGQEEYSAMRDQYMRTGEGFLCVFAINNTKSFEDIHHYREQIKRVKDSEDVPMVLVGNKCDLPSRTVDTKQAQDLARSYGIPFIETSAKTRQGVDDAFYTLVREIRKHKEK
The next test addresses KRas G12A (Homo sapiens, UniProt P01116, G12A). In words: biochemical.
For another test, the target named is KRas G12S (Homo sapiens, UniProt P01116, G12S). In words: biochemical.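 Further: TR-FRET displacement binding to KRas, read after one hour incubation at room temperature, IC50 from four-parameter fit of percent of control.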
Sequence of KRas G12S (P01116 1-169 isoform P01116-2 G12S): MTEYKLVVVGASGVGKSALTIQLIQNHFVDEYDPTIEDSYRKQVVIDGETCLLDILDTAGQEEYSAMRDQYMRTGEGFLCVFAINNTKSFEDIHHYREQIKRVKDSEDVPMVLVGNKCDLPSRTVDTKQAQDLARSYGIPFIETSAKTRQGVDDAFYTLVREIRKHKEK
In another test the target is KRas G12C (Homo sapiens, UniProt P01116, G12C). Briefly: biochemical.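 Further: binding to KRas assessed by TR-FRET displacement after one hour incubation at room temperature, potency fitted from percent-of-control values.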
Sequence of KRas G12C (P01116 1-169 isoform P01116-2 G12C): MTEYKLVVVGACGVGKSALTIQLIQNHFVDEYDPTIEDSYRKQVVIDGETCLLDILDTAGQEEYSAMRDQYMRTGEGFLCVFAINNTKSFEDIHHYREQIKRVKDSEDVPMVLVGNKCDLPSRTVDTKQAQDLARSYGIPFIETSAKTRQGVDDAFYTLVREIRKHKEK
In a further test the target is KRas WT (Homo sapiens, UniProt P01116). Briefly: biochemical.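 Further: binding to KRas read as TR-FRET displacement after a one-hour room-temperature incubation, IC50 derived from percent-of-control values.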
Sequence of KRas WT (P01116 1-169 isoform P01116-2): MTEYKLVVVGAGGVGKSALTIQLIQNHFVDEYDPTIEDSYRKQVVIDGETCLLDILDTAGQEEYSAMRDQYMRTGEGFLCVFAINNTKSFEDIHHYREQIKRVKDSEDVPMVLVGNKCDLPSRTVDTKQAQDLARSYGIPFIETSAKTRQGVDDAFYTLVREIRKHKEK

Some results are limits rather than exact numbers.

Sequence of KRas G12A (P01116 1-169 isoform P01116-2 G12A): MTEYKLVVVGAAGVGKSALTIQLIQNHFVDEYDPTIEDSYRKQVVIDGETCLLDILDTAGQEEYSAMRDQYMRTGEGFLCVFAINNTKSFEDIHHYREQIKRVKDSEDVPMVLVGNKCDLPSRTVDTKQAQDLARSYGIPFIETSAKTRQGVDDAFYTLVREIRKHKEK

Regarding `CCc1c(F)ccc2cc(O)cc(-c3ncc4c(N(C)CC5CNS(=O)(=O)N5)nc(OC[C@@]56CCCN5C[C@H](F)C6)nc4c3F)c12` (stereo partly drawn) [Example 495], the IC50 in the test on pERK in H727 cells is 1820 nM; with pERK in ASPC1 cells it was 1350 nM; on KRas G12V, no more than 2 nM; on KRas G12R, 7 nM; against KRas G12D, 8 nM.

Consider `Cc1cc2[nH]ncc2c(-c2ncc3c(N4CCC[C@@](C)(O)C4)nc(OCC4(CN(C)C)CC4)nc3c2F)c1C` [Example 520, (3R)-1-(7-(5,6-dimethyl-1H-indazol-4-yl)-2-((1-((dimethylamino)methyl)cyclopropyl)methoxy)-8-fluoropyrido[4,3-d]pyrimidin-4-yl)-3-methylpiperidin-3-ol], for which the IC50 was no less than 10000 nM in the test with pERK in H727 cells; no less than 10000 nM in the test with pERK in ASPC1 cells; 614 nM on KRas G12V; 1750 nM at KRas G12R; 692 nM against KRas G12D.

Take `Cc1cc2[nH]ncc2c(-c2ncc3c(N4CCCC5(CNC(=O)C5)C4)nc(OCC45CCCN4CCC5)nc3c2F)c1C` (stereo not drawn) [Example 26, 7-(7-(5,6-dimethyl-1H-indazol-4-yl)-8-fluoro-2-((hexahydro-1H-pyrrolizin-7a-yl)methoxy)pyrido[4,3-d]pyrimidin-4-yl)-2,7-diazaspiro[4.5]decan-3-one]: the IC50 with pERK in H727 cells is no less than 10000 nM; with pERK in ASPC1 cells it was no less than 10000 nM; against KRas G12V, 1260 nM; against KRas G12R, 2320 nM; against KRas G12D, 845 nM.

For `O=C1NC(=O)C2CN(c3nc(OCC45CCCN4CCC5)nc4c(F)c(-c5cc(O)cc(Cl)c5C5CC5)ncc34)CC12` (stereo not drawn) [Example 519, 5-(7-(3-chloro-2-cyclopropyl-5-hydroxyphenyl)-8-fluoro-2-((tetrahydro-1H-pyrrolizin-7a(5H)-yl)methoxy)pyrido[4,3-d]pyrimidin-4-yl)tetrahydropyrrolo[3,4-c]pyrrole-1,3(2H,3aH)-dione], the IC50 in the test on pERK in H727 cells was no less than 10000 nM; with pERK in ASPC1 cells, no less than 10000 nM; against KRas G12V, no more than 2 nM; against KRas G12R, no more than 2 nM; at KRas G12D it was no more than 2 nM.

For `CCc1c(F)ccc2cc(O)cc(-c3ncc4c(N5CCC6C(=O)NC(=O)C6C5)nc(OC[C@@]56CCCN5C[C@H](F)C6)nc4c3F)c12` (stereo partly drawn) [Example 487, 5-(7-(8-ethyl-7-fluoro-3-hydroxynaphthalen-1-yl)-8-fluoro-2-(((2R,7aS)-2-fluorohexahydro-1H-pyrrolizin-7a-yl)methoxy)pyrido[4,3-d]pyrimidin-4-yl)hexahydro-1H-pyrrolo[3,4-c]pyridine-1,3(2H)-dione], the 50% inhibitory concentration (IC50) in the test with pERK in H727 cells is 4990 nM; in the test on pERK in ASPC1 cells it was no less than 10000 nM; against KRas G12V, 5 nM; against KRas G12R it was 6 nM; against KRas G12D, 14 nM.

`O=C1CC2(CCCN(c3nc(OCC45CCCN4CCC5)nc4c(F)c(-c5cc(O)cc(Cl)c5C5CC5)ncc34)C2)N1` (stereo not drawn) [Example 518, 6-(7-(3-chloro-2-cyclopropyl-5-hydroxyphenyl)-8-fluoro-2-((tetrahydro-1H-pyrrolizin-7a(5H)-yl)methoxy)pyrido[4,3-d]pyrimidin-4-yl)-1,6-diazaspiro[3.5]nonan-2-one]: the 50% inhibitory concentration (IC50) in the test with pERK in H727 cells is 9210 nM; in the test with pERK in ASPC1 cells, no less than 10000 nM; on KRas G12V, no more than 2 nM; against KRas G12R, no more than 2 nM; at KRas G12D, no more than 2 nM.

Take `Cc1cc2[nH]ncc2c(-c2ncc3c(N4CCCC5(CC(=O)N5)C4)nc(OCC45CCCN4CCC5)nc3c2F)c1C` (stereo not drawn) [Example 523, 6-(7-(5,6-dimethyl-1H-indazol-4-yl)-8-fluoro-2-((hexahydro-1H-pyrrolizin-7a-yl)methoxy)pyrido[4,3-d]pyrimidin-4-yl)-1,6-diazaspiro[3.5]nonan-2-one]: the half-inhibitory concentration (IC50) with pERK in H727 cells is no less than 10000 nM; in the test on pERK in ASPC1 cells, no less than 10000 nM; on KRas G12V, 129 nM; against KRas G12R, 217 nM; on KRas G12D, 166 nM.

With `O=S1(=O)NC[C@@]2(CCCN(c3nc(OC[C@@]45CCCN4C[C@H](F)C5)nc4c(F)c(-c5cc(O)cc6ccc(F)c(Cl)c56)ncc34)C2)N1` [Example 516, (S)-7-(7-(8-chloro-7-fluoro-3-hydroxynaphthalen-1-yl)-8-fluoro-2-(((2R,7aS)-2-fluorotetrahydro-1H-pyrrolizin-7a(5H)-yl)methoxy)pyrido[4,3-d]pyrimidin-4-yl)-2-thia-1,3,7-triazaspiro [4.5]decane2,2-dioxide], the IC50 in the test with pERK in H727 cells stood at 5690 nM; with pERK in ASPC1 cells, 9320 nM.

For the compound `O=C1NC(=O)C2(COCCN(c3nc(OCC45CCCN4CCC5)nc4c(F)c(-c5cccc6cccc(F)c56)ncc34)C2)N1` (stereo not drawn) [Example 272, 10-(8-fluoro-7-(8-fluoronaphthalen-1-yl)-2-((hexahydro-1H-pyrrolizin-7a-yl)methoxy)pyrido[4,3-d]pyrimidin-4-yl)-7-oxa-1,3,10-triazaspiro[4.6]undecane-2,4-dione], the IC50 was found to be 138 nM against KRas G12A; 132 nM against KRas G12S; 130 nM against KRas G12V; 120 nM against KRas G12R; 141 nM against KRas G12C; 194 nM against KRas G12D. At KRas WT, it took 116 nM to reach half-maximal inhibition (IC50).

Take `O=C1NC(=O)C2(CCCN(c3nc(OCC45CCCN4CCC5)nc4c(F)c(-c5cccc6cccc(CF)c56)ncc34)C2)N1` (stereo not drawn) [Example 462, 7-(8-fluoro-7-(8-(fluoromethyl)naphthalen-1-yl)-2-((hexahydro-1H-pyrrolizin-7a-yl)methoxy)pyrido[4,3-d]pyrimidin-4-yl)-1,3,7-triazaspiro[4.5]decane-2,4-dione]: the IC50 on KRas G12A amounted to 321 nM; against KRas G12S, 311 nM; at KRas G12V it was 350 nM; on KRas G12R, 418 nM; at KRas G12C, 430 nM; against KRas G12D, 880 nM. The compound also showed an IC50 at KRas WT of 493 nM.

For `Cc1cc2[nH]ncc2c(-c2ncc3c(N4CCCC(C)(O)C4)nc(OC[C@@]45CCCN4C[C@H](F)C5)nc3c2F)c1C` (stereo partly drawn) [Example 471], the IC50 on KRas G12A amounted to 332 nM; against KRas G12S it was 391 nM; against KRas G12V, 427 nM; on KRas G12R it was 1070 nM; at KRas G12C it was 459 nM; against KRas G12D, 309 nM. Also, the concentration for half-maximal inhibition (IC50) at KRas WT came to 362 nM.

As to `O=C1CC2(CCCN(c3nc(OCC45CCCN4CCC5)nc4c(F)c(-c5cccc6cccc(Cl)c56)ncc34)C2)N1` (stereo not drawn) [Example 283, 6-(7-(8-chloronaphthalen-1-yl)-8-fluoro-2-((tetrahydro-1H-pyrrolizin-7a(5H)-yl)methoxy)pyrido[4,3-d]pyrimidin-4-yl)-1,6-diazaspiro[3.5]nonan-2-one], the IC50 against KRas G12A is 97 nM; against KRas G12S, 91 nM; against KRas G12V, 90 nM; on KRas G12R, 129 nM; against KRas G12C, 77 nM; on KRas G12D, 97 nM. Also, half-maximal inhibition on KRas WT (IC50) was put at 113 nM.

For `Cc1cccc2cccc(-c3ncc4c(N5CCCC(c6nc[nH]n6)C5)nc(OCC56CCCN5CCC6)nc4c3F)c12` (stereo not drawn) [Example 455, 4-(3-(1H-1,2,4-triazol-3-yl)piperidin-1-yl)-8-fluoro-2-((hexahydro-1H-pyrrolizin-7a-yl)methoxy)-7-(8-methylnaphthalen-1-yl)pyrido[4,3-d]pyrimidine], the IC50 against KRas G12A worked out at 5990 nM; against KRas G12S it was 8170 nM; on KRas G12V, 5150 nM; on KRas G12R, 4510 nM; on KRas G12C it was 8470 nM; against KRas G12D, 6350 nM. Moreover, the IC50 against KRas WT worked out at 11700 nM.

For the compound `Fc1c(-c2cccc3cccc(Cl)c23)ncc2c(NCCCOC(F)F)nc(OCC34CCCN3CCC4)nc12` [Example 474, 7-(8-chloronaphthalen-1-yl)-N-(3-(difluoromethoxy)propyl)-8-fluoro-2-((tetrahydro-1H-pyrrolizin-7a(5H)-yl)methoxy)pyrido[4,3-d]pyrimidin-4-amine], the IC50 against KRas G12A was 2950 nM; on KRas G12S, 3450 nM; at KRas G12V it was 1750 nM; against KRas G12R, 3630 nM; on KRas G12C, 2390 nM; on KRas G12D, 8600 nM. The compound also came in with an IC50 against KRas WT of 6170 nM.

As to `CCc1cccc2cccc(-c3ncc4c(N5CC6C(=O)NC(=O)C6C5)nc(OCC56CCCN5CCC6)nc4c3F)c12` (stereo not drawn) [Example 292, 5-(7-(8-ethylnaphthalen-1-yl)-8-fluoro-2-((hexahydro-1H-pyrrolizin-7a-yl)methoxy)pyrido[4,3-d]pyrimidin-4-yl)tetrahydropyrrolo[3,4-c]pyrrole-1,3(2H,3aH)-dione], the IC50 against KRas G12A is 97 nM; against KRas G12S it was 26 nM; at KRas G12V, 61 nM; on KRas G12R, 180 nM; on KRas G12C it was 88 nM; against KRas G12D, 21 nM. On KRas WT, this compound gave an IC50 of 68 nM.

As to `Cc1cccc2cccc(-c3ncc4c(N5CCCC6(CNC(=O)N6)C5)nc(OCC56CCCN5CCC6)nc4c3F)c12` (stereo not drawn) [Example 454, 7-(8-fluoro-2-((hexahydro-1H-pyrrolizin-7a-yl)methoxy)-7-(8-methylnaphthalen-1-yl)pyrido[4,3-d]pyrimidin-4-yl)-1,3,7-triazaspiro[4.5]decan-2-one], the IC50 is 176 nM at KRas G12A; 167 nM at KRas G12S; 191 nM at KRas G12V; 421 nM on KRas G12R; 157 nM at KRas G12C; 105 nM against KRas G12D. The IC50 at KRas WT came out at 163 nM.

For orientation: IC50 means the concentration that inhibits the measured activity by half.

The record behind these values is patent US12398154B2, “Azaquinazoline pan-KRas inhibitors” (Mirati Therapeutics, Inc., priority 2020, dated 2025).
